For assay [1], the system named is Human melanocytes. The assay is described as follows: Nitric oxide-induced DNA strand breaks with or without UV (pulsed field gel electrophoresis). Type of assay: cell-based. The method, then:
Human melanocytes were exposed to 160 μM DETA NONOate (Alexis Corporation, Cat #430-014-M005), a reagent which spontaneously produces nitric oxide when exposed to water. Cells were exposed to NO alone, or NO plus increasing doses of UV radiation (50 and 300 J/m^2). Groups of cells were also exposed to deoxyribonucleosides of the invention before, or before and after, exposure to NO or NO+UV radiation; control groups were treated identically except for addition of deoxyribonucleosides.
DNA was extracted from cells and subjected to pulsed field gel electrophoresis to determine the incidence of DNA strand breaks.

Assay [2] relates to human fibroblasts. The assay is described as follows: UV-induced DNA single strand breaks (nucleoid position, alkaline sucrose gradient) with oxybenzone. The class given is cell-based. The method, then:
(§1) Confluent human fibroblasts in T25 flasks were washed 3 times with HBSS (Hank's Balanced Salt Solution) and incubated with vehicle or with various concentrations of oxybenzone (OB) for 2 hours. Media was aspirated and cells were covered with a 1 mm layer of HBSS and irradiated from above with UV-B (50 J/m^2). The medium was aspirated and cells were incubated for three hours with 2 mM hydroxyurea. Medium was again aspirated, and cells were trypsinized with 0.25% trypsin/EDTA. Cells were centrifuged at 4° C., resuspended in 50 microliters of HBSS and incubated at room temperature with 200 microliters of 1N NaOH for 15 minutes. DNA damage (single strand breaks) was assessed by alkaline sucrose gradient centrifugation. “Nucleoid position” in the sucrose gradient is proportional to the number of DNA single strand breaks.

Assay [3] deals with human fibroblasts. The assay is described as follows: Photodynamic enhancement of DNA damage by UV plus oxybenzone, attenuation by deoxyribonucleosides (nucleoid position). Type of assay: cell-based. Conditions: UV + 2 μM OB, no dNsides. The protocol: as §1
Confluent human fibroblasts were exposed to 2 micromolar oxybenzone (OB), as in Example 3, prior to exposure to UV-B radiation (50 J/m^2). Different flasks of cells also were exposed to increasing concentrations of deoxyribonucleosides. Cells were processed for determination of nucleoid position in a sucrose density gradient, a measure of DNA single strand breaks.

Assay [4] concerns human fibroblasts. The assay is described as follows: Individual versus combined deoxyribonucleosides on photodynamically enhanced UV-induced DNA strand breaks. The class given is cell-based. To be noted: UV with 2 μM oxybenzone; individual compounds 20 μM, combination 20 μM each; UV + vehicle .325. The method, then:
Confluent human fibroblasts were exposed to 2 micromolar oxybenzone (OB), as in Example 3, prior to exposure to UV-B radiation (50 J/m^2). Different flasks of cells also were exposed to increasing concentrations of deoxyribonucleosides. Cells were processed for determination of nucleoid position in a sucrose density gradient, a measure of DNA single strand breaks. […] Individual deoxyribonucleosides were tested at concentrations of 20 μM, and the combination of all four deoxyribonucleosides contained thymidine, deoxycytidine. deoxyadenosine and deoxyguanosine at 20 μM each.

Assay [5] deals with v-Ha-ras TG.AC mice. As to the kind of experiment: Individual deoxyribonucleosides versus combination on UV-induced tumorigenesis in v-Ha-ras TG.AC mice. Type of assay: in vivo, mouse. Conditions: UV 1.25 kJ/m^2 on days 0, 6, 8 and 11; 4 mg/ml (each) in propylene glycol beginning 30 minutes after irradiation; vehicle 1.8. The method, then:
Thirty v-Ha-ras TG.AC mice aged twelve weeks were shaved and subjected to ultraviolet radiation, 1.25 kJ/m^2 on days 0, 6, 8 and 11, at a dose rate of 12.5 W/m2. Mice were divided into groups of five animals each and treated, beginning 30 minutes after irradiation, with: 1. Vehicle (propylene glycol) 2.

As to `[N]=O` [NO, Nitric oxide], the “DNA Strand Breaks” value is on record as 0.21 breaks/105 MDa in assay [1] (NO + UV 50 J/m^2), 0.51 breaks/105 MDa in assay [1] (NO + UV 300 J/m^2) and 0.13 breaks/105 MDa in assay [1] (NO alone (160 μM DETA NONOate)).
For the molecule `COc1ccc(C(=O)c2ccccc2)c(O)c1` [OB, oxybenzone (benzophenone-3)], the “Nucleoid Position” value is recorded as 32 mm in assay [2] (UV 50 J/m^2 + 2 μM OB, 2 hours preincubation); 4 mm in assay [2] (UV 50 J/m^2 + 20 μM OB); 3 mm in assay [2] (UV 50 J/m^2 + 200 μM OB); 56 mm in assay [3]. Also, in assay [2] (UV 50 J/m^2 + 2 micromolar OB), the “Nucleoid position relative to non-irradiated cells” value is 10 fold.
As to `Nc1ncnc2c1ncn2[C@H]1C[C@H](O)[C@@H](CO)O1` [deoxyadenosine, Deoxyadenosine], in assay [4], the “DNA Strand Breaks” value is on record as “.17 Breaks/47 MDa”. The “Papillomas/mouse at the end of 8 weeks” value in assay [5] came to 0.67 Papillomas/mouse.
The corresponding values for `Nc1ccn([C@H]2C[C@H](O)[C@@H](CO)O2)c(=O)n1` [deoxycytidine, Deoxycytidine] are “.12 Breaks/47 MDa” and 0.25 Papillomas/mouse.
With `Nc1nc2c(ncn2[C@H]2C[C@H](O)[C@@H](CO)O2)c(=O)[nH]1` [deoxyguanosine, Deoxyguanosine], the “DNA Strand Breaks” value in assay [4] is “.17 Breaks/47 MDa”. In assay [5], the “Papillomas/mouse at the end of 8 weeks” value is 1.0 Papillomas/mouse.
The corresponding values for `Cc1cn([C@H]2C[C@H](O)[C@@H](CO)O2)c(=O)[nH]c1=O` [thymidine, Thymidine] are “.13 Breaks/47 MDa” and 1.6 Papillomas/mouse.

The record behind these values is patent US6465440B2, “Antimutagenic compositions for treatment and prevention of photodamage to skin” (Wellstat Therapeutics Corporation, priority 1997, dated 2002).
